Measurements: US8927717B1, “Thiochromeno[2,3-c]quinolin-12-one derivatives, preparation method and application thereof” (National Defense Medical Center, priority 2014, dated 2015)

Assays:
Format in all cases: cell-based
LOX IMVI = conditions: LOX IMVI
BT-549 = conditions: BT-549
NCI-H23 = conditions: NCI-H23
UO-31 = conditions: UO-31
SW-620 = conditions: SW-620
M14 = conditions: M14
NCI/ADR-RES = conditions: NCI/ADR-RES
SR = conditions: SR
HT29 = conditions: HT29
T-47D = conditions: T-47D
SN12C = conditions: SN12C
HCT-116 = conditions: HCT-116
CCRF-CEM = conditions: CCRF-CEM
SK-OV-3 = conditions: SK-OV-3
UACC-62 = conditions: UACC-62
MDA-MB-231/ATCC = conditions: MDA-MB-231/ATCC
PC-3 = conditions: PC-3
60 cancer cell lines = test: NCI 60-cell screen, SRB, whole panel (mean, delta, range)
HCT-15 = conditions: HCT-15
SNB-75 = conditions: SNB-75
COLO 205 = conditions: COLO 205
SNB-19 = conditions: SNB-19
ACHN = conditions: ACHN
SK-MEL-5 = conditions: SK-MEL-5
A549/ATCC = conditions: A549/ATCC
MOLT-4 = conditions: MOLT-4
HL-60(TB) = conditions: HL-60(TB); 10^−5 molar
RXF 393 = conditions: RXF 393
MCF7 = conditions: MCF7
MDA-MB-435 = conditions: MDA-MB-435
DU-145 = conditions: DU-145
KM12 = test: cells; conditions: KM12
NCI-H522 = conditions: NCI-H522
TK-10 = conditions: TK-10
K-562 = conditions: K-562
HOP-62 = conditions: HOP-62
NCI-H460 = conditions: NCI-H460
OVCAR-5 = conditions: OVCAR-5
OVCAR-8 = conditions: OVCAR-8
[1] = Homo sapiens, five dose, read-out: LC50 (the source's name)

SMILES: O=c1c2cc(Cl)ccc2sc2c(NCCCNCCO)nc3ccccc3c12 [Compound N19, 10-Chloro-6-((3-((2-hydroxyethyl)amino)propyl)amino)-12H-thiochromeno[2,3-c]quinolin-12-one]
- GI50 (LOX IMVI; Homo sapiens, five dose): 1800 nM
- Growth percent (LOX IMVI; 10^−5 molar): −82.79%
- TGI (LOX IMVI; five dose): 3800 nM
- Growth percent (BT-549; 10^−5 molar): 98.48%
- TGI (BT-549; five dose): 3150 nM
- GI50 (BT-549; Homo sapiens, five dose): 1670 nM
- GI50 (NCI-H23; Homo sapiens, five dose): 1890 nM
- Growth percent (NCI-H23; 10^−5 molar): 54.26%
- TGI (NCI-H23; five dose): 3680 nM
- GI50 (UO-31; Homo sapiens, five dose): 1360 nM
- CC50 (UO-31; [1]): 6350 nM
- Growth percent (UO-31; 10^−5 molar): 24.54%
- TGI (UO-31; five dose): 2940 nM
- GI50 (SW-620; Homo sapiens, five dose): 1630 nM
- Growth percent (SW-620; 10^−5 molar): −81.48%
- TGI (SW-620; five dose): 3300 nM
- GI50 (M14; Homo sapiens, five dose): 1830 nM
- Growth percent (M14; 10^−5 molar): 6.12%
- TGI (M14; five dose): 3530 nM
- GI50 (NCI/ADR-RES; Homo sapiens, five dose): 1820 nM
- Growth percent (NCI/ADR-RES; 10^−5 molar): 26.35%
- TGI (NCI/ADR-RES; five dose): 3630 nM
- GI50 (SR; Homo sapiens, five dose): 1980 nM
- Growth percent (SR; 10^−5 molar): −51.40%
- TGI (SR; five dose): 4550 nM
- Growth percent (HT29; 10^−5 molar): −83.53%
- TGI (HT29; five dose): 4000 nM
- GI50 (HT29; Homo sapiens, HT-29, five dose): 2050 nM
- GI50 (T-47D; Homo sapiens, T47D, five dose): 1500 nM
- Growth percent (T-47D; 10^−5 molar): 16.26%
- TGI (T-47D; five dose): 3430 nM
- GI50 (SN12C; Homo sapiens, five dose): 1700 nM
- CC50 (SN12C; [1]): 6800 nM
- Growth percent (SN12C; 10^−5 molar): 78.75%
- TGI (SN12C; five dose): 3390 nM
- Growth percent (HCT-116; 10^−5 molar): −91.19%
- TGI (HCT-116; five dose): 3050 nM
- GI50 (HCT-116; Homo sapiens, five dose): 1600 nM
- Growth percent (CCRF-CEM; 10^−5 molar): −54.78%
- TGI (CCRF-CEM; five dose): 3800 nM
- GI50 (CCRF-CEM; Homo sapiens, five dose): 1830 nM
- GI50 (SK-OV-3; Homo sapiens, five dose): 1680 nM
- CC50 (SK-OV-3; [1]): 6800 nM
- Growth percent (SK-OV-3; 10^−5 molar): 76.48%
- TGI (SK-OV-3; five dose): 3380 nM
- GI50 (UACC-62; Homo sapiens, five dose): 1810 nM
- CC50 (UACC-62; [1]): 6390 nM
- Growth percent (UACC-62; 10^−5 molar): −77.63%
- TGI (UACC-62; five dose): 3400 nM
- GI50 (MDA-MB-231/ATCC; Homo sapiens, five dose): 1360 nM
- CC50 (MDA-MB-231/ATCC; [1]): 6020 nM
- Growth percent (MDA-MB-231/ATCC; 10^−5 molar): −66.53%
- TGI (MDA-MB-231/ATCC; five dose): 2860 nM
- GI50 (PC-3; Homo sapiens, five dose): 1510 nM
- CC50 (PC-3; [1]): 5660 nM
- Growth percent (PC-3; 10^−5 molar): −26.98%
- TGI (PC-3; five dose): 2920 nM
- GI50 (60 cancer cell lines; 60 cell, mean over panel, five dose): 1660 nM
- CC50 (60 cancer cell lines; 60 cell, mean over panel, five dose, read-out: LC50, Mean): 9550 nM
- Growth percent, Delta (60 cancer cell lines; delta over panel, 10^−5 molar): 75.63%
- Growth percent, Mean (60 cancer cell lines; mean over panel, 10^−5 molar): −21.33%
- TGI, Mean (60 cancer cell lines; mean over panel, five dose): 3390 nM
- Growth percent, Range (60 cancer cell lines; range over panel, 10^−5 molar): 195.44%
- Growth percent (HCT-15; 10^−5 molar): −76.47%
- TGI (HCT-15; five dose): 3250 nM
- GI50 (HCT-15; Homo sapiens, five dose): 1610 nM
- GI50 (SNB-75; Homo sapiens, five dose): 1280 nM
- Growth percent (SNB-75; 10^−5 molar): 23.66%
- TGI (SNB-75; five dose): 2560 nM
- Growth percent (COLO 205; 10^−5 molar): −87.17%
- TGI (COLO 205; five dose): 3370 nM
- GI50 (COLO 205; Homo sapiens, five dose): 1630 nM
- GI50 (SNB-19; Homo sapiens, five dose): 1640 nM
- Growth percent (SNB-19; 10^−5 molar): 46.07%
- TGI (SNB-19; five dose): 3260 nM
- Growth percent (ACHN; 10^−5 molar): −96.96%
- TGI (ACHN; five dose): 3220 nM
- GI50 (ACHN; Homo sapiens, five dose): 1670 nM
- GI50 (SK-MEL-5; Homo sapiens, five dose): 1600 nM
- Growth percent (SK-MEL-5; 10^−5 molar): 62.02%
- TGI (SK-MEL-5; five dose): 3000 nM
- Growth percent (A549/ATCC; 10^−5 molar): −64.45%
- TGI (A549/ATCC; five dose): 3300 nM
- GI50 (A549/ATCC; Homo sapiens, five dose): 1760 nM
- GI50 (MOLT-4; Homo sapiens, five dose): 1880 nM
- Growth percent (MOLT-4; 10^−5 molar): −47.57%
- Growth percent (HL-60(TB)): −37.88%
- GI50 (RXF 393; Homo sapiens, five dose): 1640 nM
- Growth percent (RXF 393; 10^−5 molar): 43.67%
- TGI (RXF 393; five dose): 3200 nM
- GI50 (MCF7; Homo sapiens, five dose): 1050 nM
- Growth percent (MCF7; 10^−5 molar): −72.49%
- TGI (MCF7; five dose): 2600 nM
- GI50 (MDA-MB-435; Homo sapiens, five dose): 1590 nM
- CC50 (MDA-MB-435; [1]): 5620 nM
- Growth percent (MDA-MB-435; 10^−5 molar): −88.95%
- TGI (MDA-MB-435; five dose): 2990 nM
- Growth percent (DU-145; 10^−5 molar): −71.03%
- TGI (DU-145; five dose): 3310 nM
- GI50 (DU-145; Homo sapiens, five dose): 1760 nM
- CC50 (DU-145; [1]): 6250 nM
- GI50 (KM12; Homo sapiens, five dose): 1670 nM
- Growth percent (KM12; 10^−5 molar): −83.29%
- TGI (KM12; five dose): 3310 nM
- GI50 (NCI-H522; Homo sapiens, five dose): 1850 nM
- Growth percent (NCI-H522; 10^−5 molar): −59.68%
- TGI (NCI-H522; five dose): 3560 nM
- GI50 (TK-10; Homo sapiens, five dose): 2090 nM
- CC50 (TK-10; [1]): 6690 nM
- Growth percent (TK-10; 10^−5 molar): −92.61%
- TGI (TK-10; five dose): 3740 nM
- GI50 (K-562; Homo sapiens, K562, five dose): 1730 nM
- CC50 (K-562; Homo sapiens, K562, five dose, read-out: LC50 (the source's name)): > 100000 nM
- Growth percent (K-562; 10^−5 molar): −66.94%
- Growth percent (HOP-62; 10^−5 molar): 36.97%
- TGI (HOP-62; five dose): 2890 nM
- GI50 (HOP-62; Homo sapiens, five dose): 1380 nM
- GI50 (NCI-H460; Homo sapiens, five dose): 1660 nM
- Growth percent (NCI-H460; 10^−5 molar): −80.98%
- TGI (NCI-H460; five dose): 3350 nM
- GI50 (OVCAR-5; Homo sapiens, five dose): 1630 nM
- CC50 (OVCAR-5; [1]): 7530 nM
- Growth percent (OVCAR-5; 10^−5 molar): −65.05%
- TGI (OVCAR-5; five dose): 3500 nM
- GI50 (OVCAR-8; Homo sapiens, five dose): 1750 nM
- Growth percent (OVCAR-8; 10^−5 molar): 9.89%
- TGI (OVCAR-8; five dose): 3320 nM
